These results are taken from publication PMC8360007, “Stereoselective Access to Antimelanoma Agents by Hybridization and Dimerization of Dihydroartemisinin and Artesunic acid” (Chemmedchem, 2021).

A word on the IC50: it is the midpoint of a concentration-inhibition curve. A word on the CC50: it is the concentration that lowers cell viability or growth by half.

The test system of data set [1] is metastatic melanoma cancer cell line RPMI7951. In words: cell survival MTT assay on metastatic melanoma cancer cell line RPMI7951. It is filed as cell-based. The following applies: Homo sapiens, RPMI-7951, read-out: IC50±SD RPMI7951. The procedure: (§1) The anticancer‐activity of DHA and ART hybrids 7‐β, 12‐β, 13‐α, 14‐α, 15‐α, and 16‐α, and of DHA and ART dimers 17‐α,α, 18‐α,α, 19‐β,β, 20‐α,α, 21‐α,α and 22‐α,α, was evaluated by the cell survival MTT assay on metastatic melanoma cancer cell line RPMI7951. Artemisinin 1, DHA 2, ART 3, hybrids 5–7, dimer 8, and commercially available drug paclitaxel (Taxol) were used as reference. In addition, data were compared with experiments performed on normal human primary fibroblast cell line (C3PV). Table 1 reports the IC50 (half‐maximal inhibitory concentration) and CC50 (half‐maximal cytotoxic concentration) values of the tested compounds.
(§2) The primary human fibroblast C3PV cell line was treated according to Botta et al.[27] Metastatic melanoma cell line (RPMI7951) was grown in Eagle's Minimum Essential Medium (EMEM) containing 15 % and 10 % FBS respectively, in addition to penicillin (100 U/ml) and streptomycin (1 mg/ml). The cell lines were maintained at 37 °C in a humidified atmosphere (95 %) in the presence of 5.0 % CO2. Prostate cancer (PC3) and breast cancer (MDA‐MB‐231) cell lines were raised in DMEM/F12 and RMPI1640 medium, respectively. To the medium was added 10 % FBS, 1 mM Glutammine and 40 μg/ml of Gentamicin. All cell lines were mantained at 37 °C in a humidified atmosphere (95 %) in the presence of 5.0 of CO2.
To study the effect of artemisinin and its derivatives on cell viability C3PV, RPMI7951, PC3, MDA‐MB‐231 cell lines were seeded in 96‐well plates (6000 cells/well in 100 μl medium) and incubated overnight to allow cell adherence. After, the medium was replaced with fresh medium containing the appropriate dose of compound. Artemisinin and its derivatives were used in a range of […] for 24 h. The analyses of cell viability were done at the end of treatment. […]
(§3) The CC50 and IC50 values were determined by non‐linear regression using the program graphpad prism 6.
(§4) Cell viability was evaluated using MTT cell proliferation assay. Briefly, after incubation for 3 h at 37 °C with MTT (0.5 mg/ml) the supernatant was replaced with 100 μl of a lysis solution containing 10 % SDS, 0.6 % Acetic acid in DMSO to dissolve the formazan crystals. Optical density measurements were performed with a scanning spectrophotometer DTX880 Multimode Detector (Beckman Coulter) using a 630 nm (background) and a 570 nm filter.
(Tetrazolium assays rely on reduction of a dye to a coloured formazan, in cell work by metabolically active cells.)

Data set [2] in a line: MTT cell viability (cytotoxicity) on normal human primary fibroblast C3PV. It is filed as cell-based. The method, then:
as §1, §2
(§5) To study the effect of artemisinin and its derivatives on cell viability C3PV, RPMI7951, PC3, MDA‐MB‐231 cell lines were seeded in 96‐well plates (6000 cells/well in 100 μl medium) and incubated overnight to allow cell adherence. After, the medium was replaced with fresh medium containing the appropriate dose of compound. […] The analyses of cell viability were done at the end of treatment. The assays were performed in quadruplicate for both treatments.
as §3, §4

Assay in data set [3]: as above
It is filed as cell-based. The following applies: C3PV normal primary fibroblast cells, 24 h treatment, triplicate, read-out: CC50±SD C3PV.

In data set [4] the test system is human prostate (PC3) cancer cell line. In words: MTT cell viability on prostate cancer PC3 cell line. It is filed as cell-based. The following applies: PC-3, triplicate, read-out: IC50±SD PC3. The procedure: (§6) The effect of dimers 20–22‐α,α was further evaluated against other tumour types, such as human prostate and breast cancers in PC3 and MDA‐MB‐231 cell lines, respectively (Table 2).
as §2, §5, §4

The test system of data set [5] is human breast (MDA‐MB‐231) cancer cell line. In words: MTT cell viability on breast cancer MDA‐MB‐231 cell line. It is filed as cell-based. The following applies: triplicate, read-out: IC50±SD MDA‐MB‐231. The procedure: as §6, §2, §5, §4
In data set [6] the test system is normal human primary fibroblast cell line (C3PV). Details: method as in PMID 31956771. The following applies: cytotoxicity data from ref. 12; read-out: CC50±SD C3PV; cited from earlier work.
Data set [7] has as its system metastatic melanoma cancer cell line RPMI7951. Also noted: method as in PMID 31956771. The following applies: cited from earlier work.
Data set [8] is described as follows: stability in assay medium by HPLC. It is filed as physicochemical. The following applies: 24 and 48 hours, 25 °C, pH=7, in comparison with artesunic acid 3.
Where [9] appears, read: MTT, 24 h treatment, triplicate.
Where [10] appears, read: antimelanoma data from ref. 12, read-out: IC50±SD RPMI7951.

Where two headings read alike, the source gives them in different places.

As to `CC1CCC2C(C)C(Oc3ccc(CCO)cc3)OC3OC4(C)CCC1C32OO4` (stereo not drawn) [7‐β], the IC50 in data set [1] (setting [9]) is 0.2 ± 0.01 µM. This compound also came in with a CC50 at 24 h in data set [2] of 1.14 ± 0.45 µM.

With `CC1CCC2C(C)C(OCCc3ccc(O)cc3)OC3OC4(C)CCC1C32OO4` (stereo not drawn) [12‐β], in data set [1] (setting [9]), the 50% inhibitory concentration (IC50) was 0.4 ± 0.03 µM. Further, the CC50 at 24 h in data set [2] was 38.1 ± 2.56 µM.

For `C[C@H]1[C@H](OC(=O)CCC(=O)NCCc2ccc(O)cc2)O[C@@H]2O[C@@]3(C)CC[C@H]4[C@H](C)CC[C@@H]1[C@@]24OO3` [13‐α], the IC50 in data set [1] (setting [9]) stood at 1.7 ± 0.03 µM. Besides, it took 3.39 ± 0.05 µM to reach half-maximal cytotoxicity in data set [2] (CC50 at 24 h).

On to `COC(=O)C(Cc1ccc(O)cc1)NC(=O)CCC(=O)O[C@@H]1O[C@@H]2O[C@@]3(C)CC[C@H]4[C@H](C)CC[C@@H]([C@H]1C)[C@@]24OO3` (stereo partly drawn) [14‐α], for which the IC50 in data set [1] (setting [9]) is 1.3 ± 0.07 µM. In data set [2], this compound gave a CC50 at 24 h of 6.38 ± 1.5 µM.

Turning to `C[C@H]1[C@H](OC(=O)CCC(=O)Oc2ccc(CO)cc2)O[C@@H]2O[C@@]3(C)CC[C@H]4[C@H](C)CC[C@@H]1[C@@]24OO3` [15‐α], the IC50 in data set [1] (setting [9]) was 2.5 ± 0.05 µM. For the same compound, the CC50 at 24 h in data set [2] turned out to be 55.2 ± 7.33 µM.

Turning to `C[C@H]1[C@H](OC(=O)c2ccccc2C(=O)O)O[C@@H]2O[C@@]3(C)CC[C@H]4[C@H](C)CC[C@@H]1[C@@]24OO3` [16‐α], in data set [1] (setting [9]), the IC50 is 4.6 ± 0.03 µM. This compound also yielded a CC50 at 24 h in data set [2] of 8.14 ± 0.85 µM.

Take `C[C@H]1[C@H](OC(=O)CCC(=O)O[C@@H]2O[C@@H]3O[C@@]4(C)CC[C@H]5[C@H](C)CC[C@@H]([C@H]2C)[C@@]35OO4)O[C@@H]2O[C@@]3(C)CC[C@H]4[C@H](C)CC[C@@H]1[C@@]24OO3` [17‐α,α]: the IC50 in data set [1] (setting [9]) worked out at 0.07 ± 0.01 µM. For the same compound, in data set [3], the CC50 at 24 h is 0.25 ± 0.03 µM.

Regarding `C[C@H]1[C@H](OC(=O)c2ccccc2C(=O)O[C@@H]2O[C@@H]3O[C@@]4(C)CC[C@H]5[C@H](C)CC[C@@H]([C@H]2C)[C@@]35OO4)O[C@@H]2O[C@@]3(C)CC[C@H]4[C@H](C)CC[C@@H]1[C@@]24OO3` [18‐α,α], in data set [1] (setting [9]), the IC50 came to 10.8 ± 1.6 µM. Also, in data set [2], it took 8 ± 0.1 µM to reach half-maximal cytotoxicity (CC50 at 24 h).

Consider `C[C@H]1[C@@H](OCCCCO[C@H]2O[C@@H]3O[C@@]4(C)CC[C@H]5[C@H](C)CC[C@@H]([C@H]2C)[C@@]35OO4)O[C@@H]2O[C@@]3(C)CC[C@H]4[C@H](C)CC[C@@H]1[C@@]24OO3` [19‐β,β], for which the IC50 in data set [1] (setting [9]) turned out to be 3.6 ± 0.95 µM. Further, in data set [2], half-maximal cytotoxicity (CC50 at 24 h) was put at 5.7 ± 0.79 µM.

With `CC1CCC2C(C)C(OC(=O)CCC(=O)NCCc3ccc(OC(=O)CCC(=O)OC4OC5OC6(C)CCC7C(C)CCC(C4C)C57OO6)cc3)OC3OC4(C)CCC1C32OO4` (stereo not drawn) [20‐α,α], the IC50 in data set [1] (setting [9]) stood at 2.45 ± 0.05 µM; in data set [1] (in absence of DFO), 2.45 ± 0.05 µM; in data set [4], 2.3 ± 0.35 µM; in data set [5], 1.3 ± 0.85 µM. This compound gave a CC50 at 24 h in data set [2] of 228 ± 1.5 µM.

As to `COC(=O)C(Cc1ccc(OC(=O)CCC(=O)OC2OC3OC4(C)CCC5C(C)CCC(C2C)C35OO4)cc1)NC(=O)CCC(=O)OC1OC2OC3(C)CCC4C(C)CCC(C1C)C24OO3` (stereo not drawn) [21‐α,α], the IC50 turned out to be 1.76 ± 0.03 µM in data set [1] (setting [9]), 1.76 ± 0.03 µM in data set [1] (in absence of DFO), 3.04 ± 0.34 µM in data set [4] and 3.08 ± 0.85 µM in data set [5]. Also, in data set [2], the CC50 at 24 h was greater than 300 µM.

In the case of `C[C@@H]1CC[C@H]2[C@@H](C)C(=O)O[C@@H]3O[C@@]4(C)CC[C@@H]1[C@]32OO4` [Compound 1, artemisinin], in data set [1] (setting [9]), the IC50 was determined as 3.62 ± 0.99 µM. Besides, in data set [3], the CC50 at 24 h is greater than 300 µM.

On to `C[C@H]1[C@@H](O)O[C@@H]2O[C@@]3(C)CC[C@H]4[C@H](C)CC[C@@H]1[C@@]24OO3` [Compound 2, dihydroartemisinin], for which the IC50 in data set [1] (setting [9]) is 0.91 ± 0.45 µM. In data set [2], half-maximal cytotoxicity (CC50 at 24 h) was put at 0.68 ± 0.19 µM.

For the compound `C[C@H]1[C@H](OC(=O)CCC(=O)O)O[C@@H]2O[C@@]3(C)CC[C@H]4[C@H](C)CC[C@@H]1[C@@]24OO3` [Compound 3, artesunic acid], the IC50 in data set [1] (setting [9]) came to 1.08 ± 0.56 µM. In addition, the CC50 at 24 h in data set [3] came out at 1.68 ± 0.44 µM.

On to `C[C@@H]1CC[C@H]2[C@@H](C)C(OCCc3ccc(O)cc3)O[C@@H]3O[C@@]4(C)CC[C@@H]1[C@]32OO4` (stereo partly drawn) [Compound 5], for which the CC50 in data set [6] is 1.76 ± 0.31 µM. Further, the IC50 in data set [7] (setting [10]) is 0.33 ± 0.08 µM.

For the compound `C[C@@H]1CC[C@H]2[C@@H](C)C(OC(=O)CCC(=O)OCCc3ccc(O)cc3)O[C@@H]3O[C@@]4(C)CC[C@@H]1[C@]32OO4` (stereo partly drawn) [Compound 6], the CC50 in data set [6] is greater than 300 µM. Moreover, the half-maximal inhibitory concentration (IC50) in data set [7] (setting [10]) is 8.34 ± 3.06 µM.

As to `C[C@@H]1CC[C@H]2[C@@H](C)C(OC(=O)CCC(=O)Oc3ccc(CCO)cc3)O[C@@H]3O[C@@]4(C)CC[C@@H]1[C@]32OO4` (stereo partly drawn) [Compound 7], the CC50 in data set [6] is 132 ± 12.6 µM. In data set [7] (setting [10]), the IC50 is 0.09 ± 0.03 µM.

On to `CC1CCC2C(C)C(OC(=O)CCC(=O)OCCc3ccc(OC(=O)CCC(=O)OC4OC5OC6(C)CCC7C(C)CCC(C4C)C57OO6)cc3)OC3OC4(C)CCC1C32OO4` (stereo not drawn) [Compound 8], for which the CC50 in data set [6] is 6.1 ± 3.74 µM. Also, the IC50 in data set [7] (setting [10]) is 0.49 ± 0.05 µM; in data set [7] (introduction, earlier library, read-out: IC50 against RPMI‐7951 cell line), 1.37 ± 0.13 µM.

`CC1CCC2C(C)C(OC(=O)CCC(=O)OCc3ccc(OC(=O)CCC(=O)OC4OC5OC6(C)CCC7C(C)CCC(C4C)C57OO6)cc3)OC3OC4(C)CCC1C32OO4` (stereo not drawn) [Compound 22‐α,α]: the IC50 in data set [1] (setting [9]) stood at 0.05 ± 0.02 µM; in data set [1] (in absence of DFO), 0.05 ± 0.02 µM; in data set [4], 3.1 ± 0.19 µM; in data set [5] it was 2.4 ± 0.95 µM. The same compound displayed a CC50 at 24 h in data set [2] greater than 300 µM. Further, the “stability after exposition to assay medium (HPLC)” value in data set [8] is on record as “good stability”.

Take `CC(=O)O[C@H]1C(=O)[C@@]2(C)[C@H]([C@H](OC(=O)c3ccccc3)[C@]3(O)C[C@H](OC(=O)[C@H](O)[C@@H](NC(=O)c4ccccc4)c4ccccc4)C(C)=C1C3(C)C)[C@]1(OC(C)=O)CO[C@@H]1C[C@@H]2O` [Paclitaxel, paclitaxel, reference compound]: the IC50 in data set [1] (setting [9]) was determined as 0.013 µM. In data set [2], this compound returned a CC50 at 24 h of 78.9 ± 0.79 µM.
